Data on one molecule can be found in patent US20090118350A1, “Biomarkers for Identifying Efficacy of Tegaserod in Patients with Chronic Constipation” (priority 2005, published 2009).

In assay [1] the test system is healthy volunteers, patients with IBS-C, patients with chronic constipation. To be noted: cited from earlier work.
For assay [2], the system named is chronic constipation patients. To be noted: chronic constipation patients across North and South America; Johanson et al. 2004; cited from earlier work.
Assay [3] deals with patients with chronic constipation. Kind of assay: Weekly diary assessments (satisfaction with bowel habits, bothersome constipation, abdominal bloating, abdominal pain, global constipation relief) after 12 weeks, ANCOVA. Type of assay: in vivo, human. The conditions noted are these: for weekly diary assessments, outcome: 6-mg bid vs placebo, 12 weeks; for Bothersome abdominal bloating, LS Mean Value / Bothersome abdominal pain, LS Mean Value / Bothersome constipation, LS Mean Value / Global constipation relief, LS Mean Value / Satisfaction with bowel habit, LS Mean Value: 12-wk, tegaserod 6-mg bid, lower value = better response. On the procedure:
Clinical assessments. […] The primary efficacy endpoint evaluated was the increase of 1 or more CSBM/week over baseline after 4 weeks of treatment. A secondary endpoint evaluated in this genotyping study was RESP12, the increase of 1 of more CSBM/week over baseline after 12 weeks of treatment. Patients were classified as responders if they met these criteria and had completed at least 7 days of treatment. Additional secondary efficacy assessments were evaluated based on the weekly diary assessments, such as bothersome constipation, bothersome abdominal pain, and satisfaction with bowel habits at the end of the 12-week treatment period (using the baseline value as a co-variant for analysis). Additional secondary endpoints. In addition to the above assessments, 5 additional secondary efficacy endpoints were evaluated from the weekly diary assessments. These included the weekly changes in satisfaction with bowel habits, bothersome constipation, bothersome abdominal bloating, bothersome abdominal pain, and global constipation relief. TABLE 13 presents the results of analysis comparing the overall change in these parameters at the end of 12 weeks of treatment by treatment (tegaserod 6-mg bid vs. placebo) and whether they had 1 or more of the 12 “high responder” SNPs. An ANCOVA model was applied using the baseline value of these assessments as a quantitative co-variant.

Where two headings read alike, the source gives them in different places.

For the molecule `[H]/N=C(/NCCCCC)N/N=C/c1c[nH]c2ccc(OC)cc12` [tegaserod, Tegaserod], the colonic transit time result in assay [1] (healthy volunteers (Degen et al. 2001)), in assay [1] (patients with IBS-C (Prather et al. 2000)) and in assay [1] (patients with chronic constipation (Johanson et al. 2004)) was “significantly increase colonic transit time” throughout. Moreover, the response rate in assay [2] is reported as 43%. Further, the “weekly diary assessments, outcome” value in assay [3] (all patients combined) is recorded as “better outcome compared to placebo”; in assay [3] (individuals with 1 or more of the 12 SNPs, all 5 assessments), “significantly greater responses to tegaserod than placebo”; in assay [3] (individuals with none of the 12 SNPs), “no treatment difference”. For the same molecule, the “Bothersome abdominal bloating, LS Mean Value” came out at 2.18 in assay [3] (0 of 12 SNPs), 2.00 in assay [3] (>=1 of 12 SNPs) and 2.09 in assay [3] (All geno). Further, the results for the “Bothersome abdominal pain, LS Mean Value” in assay [3] (0 of 12 SNPs), in assay [3] (>=1 of 12 SNPs) and in assay [3] (All geno) were 1.90, 1.77 and 1.84, respectively. Also, the figures for the “Bothersome constipation, LS Mean Value” in assay [3] (0 of 12 SNPs), in assay [3] (>=1 of 12 SNPs) and in assay [3] (All geno) were 2.25, 1.87 and 2.07, respectively. For the same molecule, the “Global constipation relief, LS Mean Value” in assay [3] (0 of 12 SNPs) is 2.20; in assay [3] (>=1 of 12 SNPs), 1.95; in assay [3] (All geno) it was 2.08. The entries for the “Satisfaction with bowel habit, LS Mean Value” in assay [3] (0 of 12 SNPs), in assay [3] (>=1 of 12 SNPs) and in assay [3] (All geno) were 2.48, 2.17 and 2.33, respectively.
